Results filed as inconclusive are left out.
assay: TES1-eGFP NF-kB reporter inhibition versus Tet-On dsRED, dose response, selectivity assay for LMP1 NF-kB inhibitor project, imaging, HEK293T, dual-color eGFP/dsRED, cherry-picks (AID 588398); conditions: 48 h, dsRED channel counter-screen

Going from Oc1ccc(C=NNC(=S)Nc2ccccc2)nc1 to S=C(NN=Cc1ccccn1)Nc1ccccn1, the AC50 rises from 11.1 µM to over 19.5 µM.

First: COc1ccc(-n2c(C)c(C(C)=O)c3cc(OC(C)=O)ccc32)cc1
Second: COc1ccc(-n2c(C)c([N+](=O)[O-])c3ccc(O)c(CN(C)C)c32)cc1
The AC50 of the first is 1.5-fold higher: 1 µM for the first, 0.665 µM for the second.

Compared with COc1cccc(/C=N/Nc2nccnc2Cl)c1O, COc1cccc(/C=N/Nc2ncnc(Cl)c2N)c1O is 3.9-fold lower in AC50: 12.1 µM for the first, 3.08 µM for the second.

Going from O=C(N/N=C/c1ccc[nH]1)c1ccc(COc2cccc3cccnc23)cc1 to O=C(N/N=C/c1ccc(O)cc1O)c1ccc(CN2C(=O)c3cccc4cccc2c34)cc1, the AC50 falls from 19.2 µM to 12.7 µM (1.5-fold).

Cc1nn(-c2ccccc2)c(Cl)c1C1C(C#N)=C(N)Oc2n[nH]c(C)c21 (stereo not given) and Cc1nn(-c2ccccc2)c(Cl)c1C(=O)N1CCN(c2ncnc3c2cnn3-c2ccccc2)CC1 are within 1.5-fold of each other in AC50: 11.5 µM for the first, 12.9 µM for the second.

Compared with CC(=NNc1nc2ccccc2o1)c1ncccn1, CC(=NNc1nc2ccccc2s1)c1ncccn1 is 6.5-fold higher in AC50: 1.13 µM for the first, 7.33 µM for the second.

Compared with Cc1[nH]n(-c2ccc(Br)cc2)c(=O)c1/C=N/NC(=O)c1ccccc1, O=C(N/N=C/c1c(O)ccc2ccccc12)c1cccnc1 is 2.6-fold lower in AC50: 11.2 µM for the first, 4.3 µM for the second.

Going from O=C(Nc1ccc(C(=O)N2CCOCC2)cc1)Nc1cccc(C(F)(F)F)c1 to CCN1CCN(Cc2ccc(NC(=O)c3ccc(C)c(NC(=O)c4ccno4)c3)cc2C(F)(F)F)CC1, the AC50 falls from 0.966 µM to 0.0579 µM (17-fold).

Oc1ccc2ccccc2c1N=Nc1ccccn1 and CCC(C)Nc1nc(-c2ccccn2)nc2ccccc12 (stereo not given) are within 1.5-fold of each other in AC50: 7.53 µM for the first, 8.45 µM for the second.

Compared with C=CCn1c(C)c(C(C)=O)c(N2CCN(C(c3ccccc3)c3ccccc3)CC2)nc1=S, CN1CCN(/N=C/c2ccc(N(c3ccccc3)c3ccccc3)cc2)CC1 is lower in AC50: over 19.5 µM for the first, 0.505 µM for the second.

Going from CCOC(=O)/C=C(\C)Sc1cc(=O)oc2ccccc12 to CCOc1ccc(/C=C/[N+](=O)[O-])c2ccccc12, the AC50 falls from 8.75 µM to 4.38 µM (2-fold).

Compared with Cc1ccc(C(=O)Nc2cccc(C(F)(F)F)c2)cc1Nc1ncnc2nc[nH]c12, CCN(CC)c1ccc(/C=N/NC(=O)c2ccc3nc[nH]c3c2)c(O)c1 is 1.7-fold higher in AC50: 9.97 µM for the first, 16.9 µM for the second.

Going from c1nc(NCc2ccc3c(c2)OCO3)c2cc(-c3ccoc3)ccc2n1 to O=[N+]([O-])c1ccc2ncnc(N3CCN(Cc4ccc5c(c4)OCO5)CC3)c2c1, the AC50 rises from 1.56 µM to 2.87 µM (1.8-fold).

First: COc1cccc(/C=N/Nc2nc3ccccc3[nH]2)c1O
Second: COc1cccc(/C=N/NC(=O)c2[nH]nc3c2CCc2ccccc2-3)c1O
The AC50 of the first is 2-fold higher: 12 µM for the first, 5.87 µM for the second.

CC(=O)NC(c1ccc(Cl)cc1)c1ccc2cccnc2c1O (stereo not given) and CC(=O)NC(c1ccc(Cl)cc1Cl)c1ccc2cccnc2c1O (stereo not given) are within 1.5-fold of each other in AC50: 4.14 µM for the first, 5.82 µM for the second.

Compared with CCOc1ccc(Nc2ncnc3ccc([N+](=O)[O-])cc23)cc1, COc1ccc(N/N=C/c2c(C(=O)O)ccc3ccccc23)cc1 is 6.4-fold higher in AC50: 1.93 µM for the first, 12.4 µM for the second.

CC(=NNC(=S)Nc1ccccc1)c1ccccn1 and CC(=NNC(=S)Nc1ccccc1Cl)c1ccccn1 are the same in AC50: 1.37 µM for the first, 1.37 µM for the second.

CCn1c2ccccc2c2cc(/C=N/NC(=O)c3ccncc3)ccc21 and CCn1c2ccccc2c2cc(/C=N/NC(=O)c3cc(O)cc(O)c3)ccc21 are within 1.5-fold of each other in AC50: 1.68 µM for the first, 2.14 µM for the second.

First: O=C(N/N=C/c1sc2ccccc2c1O)c1cccc2ccccc12
Second: c1ccc(C(=NNc2nc3ccccc3s2)c2ccccn2)cc1
The AC50 of the first is 2.9-fold higher: 4.27 µM for the first, 1.48 µM for the second.

Going from Cc1nnc(SCC(=O)N2CCC(c3noc4ccc(F)cc34)CC2)s1 to Cc1ccc2[nH]c3c(c2c1)CCCC3NC(=O)CCl (stereo not given), the AC50 rises from 1.69 µM to 3.25 µM (1.9-fold).

First: Cc1cc(N2CCOCC2)c2c(N)c(Br)cc(C)c2n1
Second: Cc1cc(=O)[nH]c(NN=Cc2cc(Br)ccc2O)n1
The AC50 of the first is 2.6-fold lower: 3.34 µM for the first, 8.82 µM for the second.

Compared with CC[C@]1(C(=O)OC)[C@H]2C(=O)N(Cc3ccccc3)C(=O)[C@H]2[C@H]2CN=C(SCc3ccc(Cl)cc3)N21, CC[C@]1(C(=O)OC)[C@H]2C(=O)N(Cc3ccccc3)C(=O)[C@H]2[C@H]2CN=C(SCc3ccc(C#N)cc3)N21 is 2.1-fold higher in AC50: 1.32 µM for the first, 2.82 µM for the second.

Compared with O=Cc1ccc(-c2cccs2)s1, CN1C(=O)N(C)c2ccc(C=O)c3cccc1c23 is 4.8-fold higher in AC50: 2.71 µM for the first, 12.9 µM for the second.

C/C(=N/NC(=O)c1ccc(C(C)(C)C)cc1)c1ccccn1 and CC(=NNC(=S)N1CCCC1)c1ccccn1 are within 1.5-fold of each other in AC50: 14.3 µM for the first, 17.8 µM for the second.

Cc1ccc(-c2csc(=Nc3cccnc3)n2CCCn2ccnc2)cc1C and COc1ccc(-c2csc3ncnc(NCCCO)c23)cc1 are within 1.5-fold of each other in AC50: 5.1 µM for the first, 4.81 µM for the second.

Going from CC1CCN(C(=O)/C(=C\c2cccs2)NC(=O)c2ccccc2)CC1 to CC1CC(C)C(=O)C(C(CC2CC(=O)NC(=O)C2)OC(=O)CC(=O)c2ccccc2)C1 (stereo not given), the AC50 falls from over 19.5 µM to 5.02 µM.

First: CC(C)(O)C#Cc1ccc([C@@H]2C[C@H]3CN(c4ccccc4)C(=O)[C@]34CCCN24)s1
Second: COc1ccc(N2Cc3ccccc3C2=O)cc1
The AC50 of the first is lower: 14.9 µM for the first, over 19.5 µM for the second.

Going from CC(=NNC(=S)N1CC2CCC(CC2)C1)c1nccs1 to CCC(=O)NC(c1cc(Cl)c2cccnc2c1O)C1CC1 (stereo not given), the AC50 rises from 4.15 µM to 13 µM (3.1-fold).

NC(=O)c1sc2nccc(Nc3ccccc3)c2c1N and CC(=NNc1nc2ccccc2o1)c1cc2ccccc2cn1 are within 1.5-fold of each other in AC50: 4.04 µM for the first, 3.99 µM for the second.

Going from NC(=S)N/N=C/c1ncc(C(F)(F)F)cc1Cl to NC(=S)NN=Cc1nccc2c(C(F)(F)F)cccc12, the AC50 falls from 12.1 µM to 4.06 µM (3-fold).

First: O=C(N/N=C/c1cc2c3c(c1O)CCCN3CCC2)c1ccccc1O
Second: O=C(NN=Cc1ccc(N(CCCl)CCCl)cc1Cl)c1cccnc1
The AC50 of the first is 5.2-fold higher: 8.25 µM for the first, 1.58 µM for the second.

Going from CCCN(CC)c1ncnc2[nH]ncc12 to CCN(CC)S(=O)(=O)c1ccc(N/N=C/c2ccc(O)cc2O)nc1, the AC50 rises from 1.41 µM to 4.19 µM (3-fold).

Compared with CS(=O)(=O)c1ccc(Sc2nc3ccccc3s2)c([N+](=O)[O-])c1, Cc1cc(C)nc(N/C(=N\S(=O)(=O)Cc2ccccc2)Nc2ccccc2Br)n1 is 5.6-fold higher in AC50: 3.22 µM for the first, 18.1 µM for the second.

First: COc1cc(C=C2CCCC(=Cc3ccc(OCC4CO4)c(OC)c3)C2=O)ccc1OCC1CO1 (stereo not given)
Second: COc1ccc(C=C2CS(=O)(=O)CC(=Cc3ccc(OC)cc3)C2=O)cc1
The AC50 of the first is 5-fold higher: 8.08 µM for the first, 1.61 µM for the second.

CCCC(=O)NC(c1ccc(C(C)C)cc1)c1ccc2cccnc2c1O (stereo not given) and CCCC(=O)NC(c1ccc(C)cc1)c1ccc2cccnc2c1O (stereo not given) are within 1.5-fold of each other in AC50: 4.16 µM for the first, 4.12 µM for the second.

Going from N#Cc1ncc(N=Cc2ccc(N(CCCl)CCCl)cc2)s1 to O=C(CF)N(O)c1ccc(C=Cc2ccccc2)cc1, the AC50 falls from 12.6 µM to 1.51 µM (8.3-fold).

First: O=S(=O)(c1ccc2c(c1)C(=NO)c1cc(S(=O)(=O)N3CCCCC3)ccc1-2)N1CCCCC1
Second: C#CCN(C[C@@H]1[C@@H](OC(=O)NCC2CCCCC2)[C@@H](OC(=O)NCC2CCCCC2)Cn2c(=O)ccc(=O)n21)S(=O)(=O)c1ccc(C)cc1
The AC50 of the first is higher: over 19.5 µM for the first, 2.83 µM for the second.

Compared with COc1cc([C@@H]2c3cc4c(cc3[C@@H](O[C@@H]3O[C@@H]5CO[C@@H](C)O[C@H]5[C@H](O)[C@H]3O)[C@H]3COC(=O)[C@H]23)OCO4)cc(OC)c1O, CC1=C(C(=O)OCc2ccc3c(c2)OCO3)C(c2ccc(Cl)cc2)NC(=O)N1 (stereo not given) is 140-fold lower in AC50: 14.5 µM for the first, 0.1 µM for the second.

Compared with O=C(c1ccccc1)C(CCC(CN1CCOCC1)C(=O)c1ccccc1)CN1CCOCC1 (stereo not given), CN(CCNC(=O)C1CCN(S(=O)(=O)N2CCOCC2)CC1)CCc1ccccc1 is higher in AC50: 1.99 µM for the first, over 19.5 µM for the second.

OCCCNc1nccc(-c2cc(Nc3cccc(Cl)c3)ncn2)n1 and CCC(=O)NC(c1ccc(Cl)cc1Cl)c1ccc2cccnc2c1O (stereo not given) are within 1.5-fold of each other in AC50: 4.72 µM for the first, 4.23 µM for the second.

First: C=C1C(=O)C2=CC1CCC(=O)C1(C)CCC(OC(C)=O)C(C)(C)C1CC2O (stereo not given)
Second: CCOC(=O)c1c(-n2cccc2)sc2c1CCCC2=O
The AC50 of the first is 4-fold lower: 2.73 µM for the first, 11 µM for the second.

Going from NC(=S)NN=Cc1nccc2c(C(F)(F)C(F)(F)C(F)(F)F)cccc12 to CNc1cccnc1C=NNC(N)=S, the AC50 rises from 1.27 µM to 12.8 µM (10-fold).

N#CC(C#N)c1ccnc2ccccc12 and N#CC(C#N)=NNc1ccc(-n2ccc(C(F)(F)F)n2)cc1 are within 1.5-fold of each other in AC50: 6.14 µM for the first, 6.47 µM for the second.

Going from C#CCN(C[C@@H]1[C@@H](OC(=O)NCc2ccccc2F)[C@@H](OC(=O)NCc2ccccc2F)Cn2c(=O)ccc(=O)n21)S(=O)(=O)c1ccc(C)cc1 to COC(=O)[C@@]1(Cc2ccccc2)[C@H]2C(=O)N(Cc3ccccc3)C(=O)[C@H]2[C@H]2CN=C(SCc3ccc(Cl)cc3)N21, the AC50 falls from 3.9 µM to 2.49 µM (1.6-fold).

Compared with COc1ccc(-c2csc3ncnc(Sc4nnnn4C)c23)cc1, COc1ccc(-c2csc(Nc3cccc(C)n3)n2)cc1OC is higher in AC50: 10.5 µM for the first, over 19.5 µM for the second.

Going from COC(=O)[C@@]1(C)[C@H]2C(=O)N(Cc3ccccc3)C(=O)[C@H]2[C@H]2CN=C(SCc3ccc(Cl)cc3)N21 to Cc1ccccc1C(=O)N1CCN(c2ccc(NC(=O)CSc3ccc(Cl)cc3)cc2)CC1, the AC50 falls from 2.41 µM to 0.253 µM (9.5-fold).

First: CCC(=O)NC(c1ccc(C)cc1)c1ccc2cccnc2c1O (stereo not given)
Second: CCCCC(=O)NC(c1ccc(OC)c(OC)c1)c1ccc2cccnc2c1O (stereo not given)
The AC50 of the first is 3.8-fold lower: 3.61 µM for the first, 13.6 µM for the second.

Going from CC1Cc2ccccc2N1c1ncnc(N)c1[N+](=O)[O-] (stereo not given) to CC(=C/c1ccccc1)/C=N/n1c(-c2ccncc2)n[nH]c1=S, the AC50 rises from 0.411 µM to 1.3 µM (3.2-fold).

First: Cc1cc(C)n(-c2ccc(NN=C(C#N)C#N)cc2)n1
Second: CCn1c2ccccc2c2cc(/C=N/n3c(-c4cc(C)[nH]n4)n[nH]c3=S)ccc21
The AC50 of the first is 5.8-fold higher: 5.01 µM for the first, 0.862 µM for the second.

First: C[n+]1c2n(c3ccccc31)N=C(c1cc(C(C)(C)C)c(O)c(C(C)(C)C)c1)CS2
Second: O=c1c(O)c(-c2ccc(O)c(O)c2)oc2cc(O)cc(O)c12
The AC50 of the first is lower: 10.8 µM for the first, over 19.5 µM for the second.
